Results: article PMC8999677, “Critical Assessment of a Structure-Based Screening Campaign for IDO1 Inhibitors: Tips and Pitfalls” (International Journal of Molecular Sciences, 2022)

How the values were obtained:
[1] = molecular target: fluorescently labelled rhIDO1 (NT650-IDO1) (Homo sapiens, UniProt P14902); test: Single-point MST binding assay at 250 µM; details: 250 µM compound, 50 nM labelled rhIDO1; F-norm outside vehicle signal and SD
[2] = Potentiometric logP determination (Sirius T3); type: physicochemical; details: for logP: n-octanol/ISA water biphasic system, read-out: explogP
Text: (§1) Confirmed IDO1 ligands were profiled for the calculation and experimental determination of their acidic constant (calcpKa, exppKa) and n-octanol/water partition coefficient (calclogP, explogP). […] Four of these compounds (19–22) were titrated with a potentiometric method to determine the relative exppKa and explogP, using a Sirius T3 instrument. The remaining two compounds (16, 17) were not experimentally analyzed because their calcpKa values were too close to the upper detection limit of the Sirius T3 instrument.
(§2) Acidic constants (pKa) and octanol/water partition coefficients (logP) of confirmed hit compounds were firstly calculated using the pKa and logP plugins of the program Marvin (Marvin v20.11, ChemAxon, Budapest, Hungary).
(§3) The experiments were set up with Sirius T3 control software (Sirius T3 v1.1.3.0, Pion Inc. Ltd., Forest Row, East Sussex, UK), specifying the volume of the stock solution to be used, molecular weight, number of expected pKa and their calculated values (calcpKa), predicted logP (calclogP), and titration mode (from pH = 2 to 12 for basic compounds, and from pH = 12 to 2 for acidic compounds). To avoid issues of poor solubility during the titration in ISA water, the pKa analyses were carried out in triplicate with different ratios of organic cosolvent methanol and water (50%, 40%, and 30% methanol). Considering the modification of water’s dielectric constant in the presence of an organic solvent, the pKa at 0% of co-solvent was obtained through the method of Yasuda–Shedlovsky (YS) extrapolation to zero [58]. The validity of the analysis was assessed with the r^2 of the YS method, and results were considered acceptable with an r^2 ≥ 0.9. Titration results were analyzed with Sirius T3 refine software (Sirius T3 v1.1.3.0, Pion Inc. Ltd., Forest Row, East Sussex, UK). Octanol/water partition coefficient (logP) was measured through a potentiometric titration in a biphasic system, using ISA water and n-octanol. Specifically, Sirius T3 control software uses three evaluation models of experimental logP, whose choice is based on the calculated logP values (calclogP < 1, “Low-logP” method; 1 < calclogP < 3, “Medium-logP” method; calclogP > 3, “High-logP” method). Accordingly, the “Medium-logP” method was selected to evaluate the experimental logP (explogP) of the selected compounds. The titration was performed in triplicate and the raw data were elaborated using Sirius T3 refine software. The quality of the analysis was evaluated by comparing the titration curve of each analysis by calculating a root mean square deviation (RMSD). All the analysis yielded RMSD values < 0.5.

[3] = Potentiometric pKa determination (Sirius T3); type: physicochemical; details: for exppKa: Sirius T3, Yasuda-Shedlovsky extrapolation to 0% methanol, first or only value
Text: as §1, §2, §3

[4] = molecular target: recombinant human IDO1 (rhIDO1) (Homo sapiens, UniProt P14902); test: Full-point MST binding assay against labelled rhIDO1; details: for BEI (binding efficiency index): BEI = pKd/MW (kDa)
[5] = tested on: P1.HTR cells; test: Cytotoxicity seen in the P1.HTR cellular assay; type: cell-based, mouse; details: 30 µM, data not shown
Method: Accordingly, no correlation could be found between cellular activities and enzymatic binding data of tested compounds.
A cellular assay was performed to assess the functional activity of confirmed hit compounds against IDO1. Briefly, P1.HTR cells, a highly transfectable clonal variant of mouse mastocytoma P815 [59], were cultured in Iscove’s modified Dulbecco’s medium supplemented with 10% fetal calf serum (FCS), 1 mM glutamine and penicillin/streptomycin at 37 °C in a humidified 7% CO2 incubator. P1.HTR cells were transfected by electroporation with plasmid constructs coding for murine IDO1 (P1.IDO1). A stable transfectant cell line was obtained by puromycin selection. Cells at the concentration of 0.25 × 10^6 cell/mL were incubated with 30 µM of compounds for 16 h, using a culture medium containing L-Trp at a concentration of 78.4 µM and a HEPES buffer at pH 7.2.

[6] = molecular target: T1, murine IDO1 (Mus musculus, UniProt P28776); test: Cellular assay of IDO1 inhibition, L-Kyn production in P1.HTR cells; type: cell-based; details: 16 h; for FC L-Kyn (fold change of L-Kyn production): 30 µM compound, P1.HTR cells stably transfected with murine IDO1, versus vehicle, mean ± SD
T1 construct: expressed in transfected cells
Method: The functional activity of confirmed IDO1 ligands was estimated in murine mastocytoma cell line (P1.HTR) stably transfected with murine IDO1. Specifically, P1.HTR cells were cultured in presence of each compound at 30 µM concentration.
Briefly, P1.HTR cells, a highly transfectable clonal variant of mouse mastocytoma P815 [59], were cultured in Iscove’s modified Dulbecco’s medium supplemented with 10% fetal calf serum (FCS), 1 mM glutamine and penicillin/streptomycin at 37 °C in a humidified 7% CO2 incubator. P1.HTR cells were transfected by electroporation with plasmid constructs coding for murine IDO1 (P1.IDO1). A stable transfectant cell line was obtained by puromycin selection.
A cell culture incubated with an equivalent volume of DMSO (the vehicle in which compounds were solubilized) was used as a reference control. After the incubation, supernatants of cell cultures were recovered, and kynurenine concentration was detected by the HPLC method. Every cell assay was conducted in triplicate. Results were expressed as the mean ± standard deviation of the kynurenine fold change (L-Kyn FC), meaning the ratio between kynurenine concentration secreted in the supernatant of the compound-treated versus vehicle-treated cells. The detection of L-Kyn concentrations was performed by using a PerkinElmer, series 200 HPLC instrument. A Kinetex C18 column (250 × 4.6 mm, 5 μm, 100 A; Phenomenex, CA, USA), maintained at the temperature of 25 °C and a pressure of 1800 PSI, was used. […] L-Kyn was detected at 360 nm by an UV detector. The software TURBOCHROM 4 was used for evaluating the concentration of L-Kyn in samples by means of a calibration curve. The detection limit of the analysis was 0.05 μM.

recombinant human IDO1 (rhIDO1), sequence (P14902 whole entry): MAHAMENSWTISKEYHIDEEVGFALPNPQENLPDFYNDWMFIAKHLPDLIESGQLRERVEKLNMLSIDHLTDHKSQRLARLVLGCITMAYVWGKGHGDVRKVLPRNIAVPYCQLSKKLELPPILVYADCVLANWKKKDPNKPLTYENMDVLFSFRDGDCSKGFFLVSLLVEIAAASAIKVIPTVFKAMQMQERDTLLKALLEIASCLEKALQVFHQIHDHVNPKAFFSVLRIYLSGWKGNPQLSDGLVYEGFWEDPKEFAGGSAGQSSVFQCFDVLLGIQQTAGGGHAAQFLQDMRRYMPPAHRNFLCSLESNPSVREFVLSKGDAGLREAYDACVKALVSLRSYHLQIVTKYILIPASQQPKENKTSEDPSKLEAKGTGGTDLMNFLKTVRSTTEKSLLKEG
fluorescently labelled rhIDO1 (NT650-IDO1), sequence (P14902 whole entry): as above
T1 sequence (P28776 whole entry): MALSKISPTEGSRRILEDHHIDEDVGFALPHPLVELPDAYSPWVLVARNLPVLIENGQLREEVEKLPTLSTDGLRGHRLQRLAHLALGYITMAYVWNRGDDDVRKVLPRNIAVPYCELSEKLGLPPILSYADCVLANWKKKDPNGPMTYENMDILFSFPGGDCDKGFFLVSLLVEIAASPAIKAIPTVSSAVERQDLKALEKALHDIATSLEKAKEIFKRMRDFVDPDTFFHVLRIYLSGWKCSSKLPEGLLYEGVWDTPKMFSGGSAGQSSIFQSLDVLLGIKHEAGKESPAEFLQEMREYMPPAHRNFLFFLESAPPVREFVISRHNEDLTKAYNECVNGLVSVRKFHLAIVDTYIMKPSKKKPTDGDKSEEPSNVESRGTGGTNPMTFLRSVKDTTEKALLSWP

SMILES	Single-point MST classification [1]	logP [2]	exppKa [3]	Kd [4] [µM]	BEI (binding efficiency index) [4]	Cytotoxicity [5]	Inhibition in P1.HTR cells (in words) ([6]; 30 µM)	exppKa (second value) ([3]; Sirius T3, value printed after the slash)	FC L-Kyn (fold change of L-Kyn production) [6]	explogP ([2]; n-octanol/water)
NC(=O)Cn1c(/C=C/c2ccccc2)nc2ccccc21 [VIS539]	false positive hit compound									
O=C(Nc1nnc(-c2ccc(Cl)cc2)o1)C1CC1 [VIS572 (19)]	binders	2.1	8.1	51.9 ± 18.4	16					
O=C1Nc2ccccc2/C1=C/C(=O)c1ccccc1 [VIS540 (16)]	binders			37.5 ± 11.5	18	cytotoxic				
O=C(/C=C/c1ccco1)c1ccc(O)cc1 [VIS574 (22)]		2.6	7.8	37 ± 16.8	21					
NC(=O)C1CCN(c2ccc3cccc(O)c3n2)CC1 [VIS580 (20)]	binders	1.9	5.7	80.7 ± 10.6	15					
O=C(NC1CCC(F)(F)CC1)c1ccc2cc[nH]c2c1 [VIS557 (18)]	binders			4.83 ± 0.61	19		weak inhibitor			
O=C(NCc1ccccn1)c1nn[nH]c1-c1ccc(F)cc1 [VIS597 (21)]	binders	2	3.9	73.3 ± 16.2	14			6.3	0.56 ± 0.05	
CN(C(=O)Nc1c[nH]c2ccccc12)c1ccccc1 [VIS544 (17)]	binders			59.3 ± 22.9	16				0.55 ± 0.02	
OC(CC1c2ccccc2-c2cncn21)C1CCCCC1 (stereo not drawn) [compound 10, NLG919 analogue, reference compound]			6.7							3.2
